Molecules are shown by their SMILES. Counter-ions that a name gives are not always drawn.

This assay addresses T1, P2X7 (Homo sapiens, UniProt Q99572).
T1 sequence (Q99572 1-595): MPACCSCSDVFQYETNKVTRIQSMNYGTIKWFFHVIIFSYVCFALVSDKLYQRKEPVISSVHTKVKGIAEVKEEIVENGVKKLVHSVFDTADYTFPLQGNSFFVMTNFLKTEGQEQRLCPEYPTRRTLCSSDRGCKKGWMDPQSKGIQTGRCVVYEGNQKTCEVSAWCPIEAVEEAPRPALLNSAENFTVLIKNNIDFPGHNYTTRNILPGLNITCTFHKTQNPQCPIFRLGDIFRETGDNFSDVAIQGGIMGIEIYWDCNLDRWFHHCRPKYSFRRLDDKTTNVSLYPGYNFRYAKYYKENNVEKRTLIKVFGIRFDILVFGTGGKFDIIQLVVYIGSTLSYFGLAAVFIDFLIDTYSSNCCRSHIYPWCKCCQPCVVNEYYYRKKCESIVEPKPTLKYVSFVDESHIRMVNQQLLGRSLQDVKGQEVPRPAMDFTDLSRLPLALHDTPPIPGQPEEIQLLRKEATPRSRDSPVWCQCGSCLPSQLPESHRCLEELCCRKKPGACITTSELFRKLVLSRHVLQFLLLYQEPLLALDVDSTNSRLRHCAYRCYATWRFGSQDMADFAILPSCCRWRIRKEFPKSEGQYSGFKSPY
As to the kind of experiment: YO-PRO-1 dye uptake assay in U373 cells stably expressing P2X7. The arrangement: The complete open reading frame of human P2X7 was amplified from Incyte clone 148057; expressed in transfected cells. In kind it is cell-based. Particulars: dye uptake through P2X7, U373 cells, 300 μM BzATP, 5 μM YO-PRO-1, test compounds 30 nM to 3 μM; read-out: IC50. Put shortly: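 U373 cells stably expressing human P2X7 preincubated 20 min at 37° C. with compound (30 nM to 3 μM) in Mg/Ca-free HBSS. YO-PRO-1 (5 μM final) and BzATP (300 μM final) then added for 1.5 h at 37° C.; dye-uptake fluorescence compared with compound-free control.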
Consider `Fc1ccccc1CSC1=N[C@@H](c2ccccc2)[C@@H](c2ccccc2)N1` [cis-4,5-diphenyl-2-(2-fluorobenzyl)thio-4,5-dihydro-1H-imidazole], for which the IC50 worked out at 819 nM.
Regarding `Fc1cccc(OCC2=N[C@@H](c3ccccc3)[C@@H](c3ccccc3)N2)c1` [2-[(3-Fluorophenoxy)methyl]-cis-4,5-diphenyl-4,5-dihydro-1H-imidazole trifluoroacetate], the IC50 is 224 nM.
Turning to `Cc1ccc([C@H]2NC(NCc3ccc(F)c(F)c3)=N[C@H]2c2ccc(C)cc2)cc1` [[cis-4,5-bis-(4-Methylphenyl)-4,5-dihydro-1H-imidazol-2-yl]-(3,4-difluorobenzyl)-amine hydrochloride], the IC50 came to 150 nM.
In the case of `CC(C1=N[C@](C)(c2ccccc2)[C@H](c2ccccc2)N1)c1ccc(Cl)cc1` (relative stereo) [2-[1-(4-Chlorophenyl)-1-ethyl]-cis-4,5-diphenyl-4-methyl-4,5-dihydro-1H-imidazole trifluoroacetate] it was 331 nM; in that of `Cc1ccccc1CNC1=N[C@@H](c2ccccc2)[C@@H](c2ccccc2)N1` [cis-4,5-diphenyl-2-(2-methylbenzyl)amino-4,5-dihydro-1H-imidazole], 243 nM.
`Clc1cccc(CSC2=N[C@@H](c3ccccc3)[C@@H](c3ccccc3)N2)c1` [cis-4,5-diphenyl-2-(3-chlorobenzyl)thio-4,5-dihydro-1H-imidazole]: the concentration for half-maximal inhibition (IC50) was found to be 634 nM.
For the compound `Fc1cccc([C@H]2NC(Cc3ccc(F)c(F)c3)=N[C@H]2c2cccc(F)c2)c1` [2-(3,4-Difluorobenzyl)-cis-4,5-bis-(3-fluorophenyl)-4,5-dihydro-1H-imidazole trifluoroacetate], the IC50 was determined as 79 nM.
`CC(C)(C1=N[C@@H](c2ccccc2)[C@@H](c2ccccc2)N1)c1ccc(Cl)cc1`: the IC50 was 537 nM.
In the case of `Fc1cccc(CCC2=N[C@@H](c3ccccc3)[C@@H](c3ccccc3)N2)c1` [2-[2-(3-Fluorophenyl)ethyl]-cis-4,5-diphenyl-4,5-dihydro-1H-imidazole trifluoroacetate] it was 31 nM; in that of `C[C@]1(c2ccccc2)N=C(Cc2ccc(F)cc2F)N[C@H]1c1ccccc1` (relative stereo) [2-(2,4-Difluorobenzyl)-cis-4,5-diphenyl-4-methyl-4,5-dihydro-1H-imidazole trifluoroacetate], 16 nM.
As to `c1ccc([C@H]2NC(COC3CCCCCC3)=N[C@H]2c2ccccc2)cc1` [2-[(Cycloheptyloxy)methyl]-cis-4,5-diphenyl-4,5-dihydro-1H-imidazole trifluoroacetate], the IC50 is 603 nM.
Regarding `Fc1cc(F)cc(CNC2=N[C@@H](c3ccccc3)[C@@H](c3ccccc3)N2)c1` [(cis-4,5-Diphenyl-4,5-dihydro-1H-imidazol-2-yl)-(3,5-difluorobenzyl)amine hydrochloride], the IC50 was found to be 102 nM.
Take `Clc1cccc([C@H]2NC(NCc3ccccc3)=N[C@H]2c2cccc(Cl)c2)c1` [[cis-4,5-bis-(3-Chlorophenyl)-4,5-dihydro-1H-imidazol-2-yl]-benzylamine hydrochloride]: the IC50 is 433 nM.
As for `c1ccc(CCNC2=N[C@@H](c3ccccc3)[C@@H](c3ccccc3)N2)cc1` [cis-4,5-diphenyl-2-[(2-phenyl)ethyl]amino-4,5-dihydro-1H-imidazole], the IC50 is 113 nM.
For `Clc1ccc(CNC2=N[C@@H](c3ccccc3)[C@@H](c3ccccc3)N2)cc1` [cis-4,5-diphenyl-2-(4-chlorobenzyl)amino-4,5-dihydro-1H-imidazole], the IC50 turned out to be 471 nM.
Take `Fc1ccc(CNC2=N[C@@H](c3ccc(Cl)cc3)[C@@H](c3ccc(Cl)cc3)N2)cc1F` [[cis-4,5-bis-(4-Chlorophenyl)-4,5-dihydro-1H-imidazol-2-yl]-(3,4-difluorobenzyl)-amine hydrochloride]: the IC50 came to 400 nM.
Consider `c1ccc(CCOCC2=N[C@@H](c3ccccc3)[C@@H](c3ccccc3)N2)cc1` [cis-4,5-diphenyl-2-[(2-phenethyloxy)methyl]-4,5-dihydro-1H-imidazole], for which the IC50 worked out at 768 nM.
In the case of `C[C@@]1(c2ccccc2)N=C(COCC2CC2)N[C@@H]1c1ccccc1` (relative stereo) [2-[[(Cyclopropyl)methoxy]methyl]-cis-4,5-diphenyl-4-methyl-4,5-dihydro-1H-imidazole trifluoroacetate] it was 676 nM.
Consider `Cc1cccc([C@H]2NC(NCc3cccc(F)c3)=N[C@H]2c2cccc(C)c2)c1` [[cis-4,5-bis-(3-Methylphenyl)-4,5-dihydro-1H-imidazol-2-yl]-(3-fluorobenzyl)amine hydrochloride], for which the IC50 worked out at 121 nM.
In the case of `C[C@@]1(c2ccccc2)N=C(CCc2ccccc2)N[C@@H]1c1ccccc1` (relative stereo) [cis-4,5-diphenyl-4-methyl-2-(2-phenylethyl)-4,5-dihydro-1H-imidazole], the IC50 amounted to 22 nM.
For the compound `Cc1cccc(COCC2=N[C@@H](c3ccccc3)[C@@H](c3ccccc3)N2)c1` [2-[(3-Methylbenzyloxy)methyl]-cis-4,5-diphenyl-4,5-dihydro-1H-imidazole hydrochloride], the IC50 stood at 415 nM.
For the compound `Fc1cccc([C@H]2NC(CCc3ccccc3Cl)=N[C@H]2c2cccc(F)c2)c1` [2-[2-(2-Chlorophenyl)ethyl]-cis-4,5-bis-(3-fluorophenyl)-4,5-dihydro-1H-imidazole], the IC50 came to 140 nM.
Take `Cc1ccc([C@H]2NC(NCc3cccc(F)c3)=N[C@H]2c2ccc(C)cc2)cc1` [[cis-4,5-bis-(4-Methylphenyl)-4,5-dihydro-1H-imidazol-2-yl]-(3-fluorobenzyl)amine hydrochloride]: the IC50 amounted to 134 nM.
For `Fc1cccc([C@H]2NC(NCc3ccc(F)c(F)c3)=N[C@H]2c2cccc(F)c2)c1` [[cis-4,5-bis-(3-Fluorophenyl)-4,5-dihydro-1H-imidazol-2-yl]-(3,4-difluorobenzyl)-amine hydrochloride], the IC50 stood at 71 nM.
In the case of `Fc1ccccc1[C@H]1NC(NCc2ccccc2)=N[C@H]1c1ccccc1F` [(cis-4,5-bis-(2-Fluorophenyl)-4,5-dihydro-1H-imidazol-2-yl)-benzylamine hydrochloride] it was 531 nM.
`C[C@@H](CC1=N[C@@H](c2ccccc2)[C@@H](c2ccccc2)N1)c1ccccc1`: the IC50 is 13 nM.
For `Clc1ccccc1CSC1=N[C@@H](c2ccccc2)[C@@H](c2ccccc2)N1` [cis-4,5-diphenyl-2-(2-chlorobenzyl)thio-4,5-dihydro-1H-imidazole], the IC50 turned out to be 630 nM.
Take `Fc1ccc(CNC2=N[C@@H](c3ccc(F)cc3)[C@@H](c3ccc(F)cc3)N2)cc1`: the IC50 was 338 nM.
For the compound `Fc1ccc(CC2=N[C@@H](c3ccccc3)[C@@H](c3ccccc3)N2)c(F)c1` [2-(2,4-Difluorobenzyl)-cis-4,5-diphenyl-4,5-dihydro-1H-imidazole trifluoroacetate], the IC50 was 42 nM.
Take `Fc1cccc([C@H]2NC(CCc3ccc(F)c(F)c3)=N[C@H]2c2cccc(F)c2)c1` [2-[2-(3,4-Difluorophenyl)ethyl]-cis-4,5-bis-(3-fluorophenyl)-4,5-dihydro-1H-imidazole]: the IC50 worked out at 173 nM.
For the compound `Clc1ccc(CNC2=N[C@@H](c3ccccc3)[C@@H](c3ccccc3)N2)cc1Cl` [cis-4,5-diphenyl-2-(3,4-dichlorobenzyl)amino-4,5-dihydro-1H-imidazole], the IC50 amounted to 307 nM.
Take `Cc1cccc([C@H]2NC(NCc3ccc(F)cc3)=N[C@H]2c2cccc(C)c2)c1` [[cis-4,5-bis-(3-Methylphenyl)-4,5-dihydro-1H-imidazol-2-yl]-(4-fluorobenzyl)amine hydrochloride]: the IC50 amounted to 107 nM.
Regarding `C[C@@]1(c2ccc(F)cc2)N=C(NCc2cccc(F)c2)N[C@@H]1c1ccc(F)cc1`, the IC50 is 353 nM.
The value for `Fc1cccc(CSC2=N[C@@H](c3ccccc3)[C@@H](c3ccccc3)N2)c1` [cis-4,5-diphenyl-2-(3-fluorobenzyl)thio-4,5-dihydro-1H-imidazole] was 240 nM.
For `Fc1ccccc1CC1=N[C@H](c2ccccc2)[C@H](c2ccccc2)N1` [cis-4,5-diphenyl-2-(2-fluorobenzyl)-4,5-dihydro-1H-imidazole], the IC50 was found to be 577 nM.
Regarding `COc1cccc(CSC2=N[C@@H](c3ccccc3)[C@@H](c3ccccc3)N2)c1` [2-[(3-Methoxybenzyl)thio]-cis-4,5-diphenyl-4,5-dihydro-1H-imidazole hydrochloride], the IC50 amounted to 987 nM.
Turning to `Fc1ccc(CNC2=N[C@@H](c3ccccc3)[C@@H](c3ccccc3)N2)c(F)c1` [cis-4,5-diphenyl-2-(2,4-difluorobenzyl)amino-4,5-dihydro-1H-imidazole], the IC50 is 289 nM.
In the case of `Ic1ccccc1CSC1=N[C@@H](c2ccccc2)[C@@H](c2ccccc2)N1` [cis-4,5-diphenyl-2-(2-iodobenzyl)thio-4,5-dihydro-1H-imidazole] it was 647 nM.

The term IC50 denotes the concentration needed to halve the response being measured.

The record behind these values is patent US7741493B2, “Heterocyclic compounds as P2X7 ion channel blockers” (Aventis Pharmaceuticals Inc., priority 2003, dated 2010).
